Measured values taken from patent publication US9845319B2, “Amide substituted thiazoles as modulators of RORyt” (Janssen Pharmaceutica NV, priority 2014, dated 2017).
Like-named read-outs stand apart in the source and are kept apart here.

Assays:
[1] = target: T1, human RORγt ligand binding domain (RORγt LBD) (Homo sapiens, UniProt P51449); assay: RORγt ThermoFluor assay; details: estimated from thermal shift concentration response
T1 construct: His-tag (N); TurboTEV protease cleavage site (ENLYFQG) (N); made in house; host or cells: E. coli (pHIS1, a modified pET expression vector)
T1 sequence (P51449 with tags, fused parts or gaps): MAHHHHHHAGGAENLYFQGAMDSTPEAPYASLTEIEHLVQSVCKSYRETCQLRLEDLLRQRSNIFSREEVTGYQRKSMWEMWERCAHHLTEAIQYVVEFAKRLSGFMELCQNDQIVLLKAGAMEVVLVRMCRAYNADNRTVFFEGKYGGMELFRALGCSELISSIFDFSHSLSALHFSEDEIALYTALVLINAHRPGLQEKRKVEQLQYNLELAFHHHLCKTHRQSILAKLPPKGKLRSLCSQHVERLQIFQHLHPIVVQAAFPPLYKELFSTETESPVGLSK
In short: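 Thermal shift of RORγt LBD (0.065 mg/mL) with 60 μM 1,8-ANS in 100 mM Hepes pH 7.0, NaCl, GSH, 0.002% Tween-20, heated at 1° C/min. ANS fluorescence tracked versus temperature; ΔTm relative to DMSO wells. Compounds serially diluted 1:2 from 10 mM DMSO stock.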

full-length human RORγt = target: T2, full-length human RORγt (Homo sapiens, UniProt P51449); assay: RORγt (full-length human) Reporter Assay, Conditions A; assay type: cell-based; details: for IC50: HEK293T cells, GAL4-DBD-RORγt, luciferase, read-out: RORγt (FL) Reporter Assay A, IC50; for inhibition at 6 µM: read-out: RORγt (FL) Reporter Assay A, % inhibition @ 6 μM, 6 μM compound
T2 construct: expressed in transfected cells; host or cells: HEK293T, transiently transfected with pCMV-BD-ROR
T2 sequence (P51449 1-497 isoform P51449-2): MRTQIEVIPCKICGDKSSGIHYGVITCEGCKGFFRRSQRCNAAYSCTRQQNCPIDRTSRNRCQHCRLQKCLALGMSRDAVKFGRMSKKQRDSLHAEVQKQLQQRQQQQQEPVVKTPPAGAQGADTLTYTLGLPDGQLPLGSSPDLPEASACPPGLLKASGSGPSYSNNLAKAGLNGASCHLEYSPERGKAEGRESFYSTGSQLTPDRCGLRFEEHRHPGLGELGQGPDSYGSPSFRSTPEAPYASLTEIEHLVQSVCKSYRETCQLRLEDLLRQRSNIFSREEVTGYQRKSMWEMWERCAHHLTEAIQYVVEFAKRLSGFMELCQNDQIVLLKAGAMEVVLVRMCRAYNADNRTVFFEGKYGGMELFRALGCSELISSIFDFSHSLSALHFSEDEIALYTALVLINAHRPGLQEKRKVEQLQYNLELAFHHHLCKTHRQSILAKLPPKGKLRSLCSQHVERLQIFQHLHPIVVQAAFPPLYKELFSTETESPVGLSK
In short: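 Dual-luciferase readout after overnight (16 to 20 hours) treatment: firefly values scaled between DMSO-only and saturating reference-compound controls, then corrected by Renilla. Percent inhibition calculated against DMSO control, with IC50 derived from concentration-response plots.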

[2] = tested on: IL-17 production by CD4 T cells; assay: Human Th17 Assay; assay type: cell-based; details: 72 h, read-out: Human Th17 Assay, IC50
Description: The human Th17 assay tests the effect of RORγt modulatory compounds on IL-17 production by CD4 T cells under conditions which favor Th17 differentiation. Total CD4^+ T cells were isolated from the peripheral blood mononuclear cells (PBMC) of healthy donors using a CD4^+ T cell isolation kit II, following the manufacturer's instructions (Miltenyi Biotec). […] 50 μL of compound at titrated concentrations in DMSO were added into each well at final DMSO concentration at 0.2%. Cells were incubated for 1 hour, then 50 μL of Th17 cell differentiation medium was added to each well. The final concentrations of antibodies and cytokines (R&D Systems) in differentiation medium were: 3×10^6/mL anti-CD3/CD28 beads (prepared using human T cell activation/expansion kit, Miltenyi Biotec), 10 μg/mL anti-IL4, 10 μg/mL anti-IFNγ, 10 ng/mL IL1β, 10 ng/mL IL23, 50 ng/mL IL6, 3 ng/mL TGFβ and 20 U/mL IL2. Cells were cultured at 37° C. and 5% CO2 for 3 days. Supernatants were collected and the accumulated IL-17 in culture was measured by using MULTI-SPOT® Cytokine Plate following manufacture's instruction (Meso Scale Discovery). The plate was read using Sector Imager 6000, and IL-17 concentration was extrapolated from the standard curve. The IC50s were determined by GraphPad.

[3] = IL-17 in supernatant, 3 days, human CD4+ T cells

SMILES | Kd [1] [µM] | IC50 (full-length human RORγt) [µM] | inhibition at 6 µM (full-length human RORγt) [%] | IC50 [2, 3] [µM] | IC50 ([2]; Homo sapiens, CD4+ T) [µM]
C[C@H](NS(=O)(=O)c1ccc(-c2sc(-c3nnc(C(C)(C)O)o3)nc2C(=O)N2CCC(F)(F)CC2)c(Cl)c1Cl)C(F)(F)F [Example 4/4, (S)-2,3-Dichloro-4-(4-(4,4-difluoropiperidine-1-carbonyl)-2-(5-(2-hydroxypropan-2-yl)-1,3,4-oxadiazol-2-yl)thiazol-5-yl)-N-(1,1,1-trifluoropropan-2-yl)benzenesulfonamide] | – | – | – | – | 0.015
C[C@H](NS(=O)(=O)c1ccc(-c2sc(-c3nnc(C(C)(C)O)o3)nc2C(=O)N2CCOC[C@@H]2C)c(Cl)c1Cl)C(F)(F)F [Example 6/9, 2,3-Dichloro-4-(2-(5-(2-hydroxypropan-2-yl)-1,3,4-oxadiazol-2-yl)-4-((S)-3-methylmorpholine-4-carbonyl)thiazol-5-yl)-N—((S)-1,1,1-trifluoropropan-2-yl)benzenesulfonamide] | 0.0065 | 0.11 | 108 | 0.1 | –
CC(C)(O)c1nnc(-c2nc(C(=O)N3CCC(F)(F)CC3)c(-c3ccc(C(O)C4(C(F)(F)F)CC4)c(Cl)c3Cl)s2)o1 (centres unmarked) [Example 8/4, (5-(2,3-Dichloro-4-(hydroxy(1-(trifluoromethyl)cyclopropyl)methyl)phenyl)-2-(5-(2-hydroxypropan-2-yl)-1,3,4-oxadiazol-2-yl)thiazol-4-yl)(4,4-difluoropiperidin-1-yl)methanone] | 0.012 | 0.32 | 47 | ~6 | –
C[C@H](NS(=O)(=O)c1ccc(-c2sc(-c3nnc(C(C)(C)O)o3)nc2C(=O)N2CCC(F)(F)CC2)c2c1CCCO2)C(F)(F)F [Example 24, 8-(4-(4,4-Difluoropiperidine-1-carbonyl)-2-(5-(2-hydroxypropan-2-yl)-1,3,4-oxadiazol-2-yl)thiazol-5-yl)-N—((S)-1,1,1-trifluoropropan-2-yl)chroman-5-sulfonamide] | 0.0052 | 0.19 | 97 | – | –
C[C@H](NS(=O)(=O)c1ccc(-c2sc(-c3nnc(C(C)(C)O)o3)nc2C(=O)N2CCC(F)(F)CC2)c(F)c1C(F)(F)F)C(F)(F)F [Example 25, 4-(4-(4,4-Difluoropiperidine-1-carbonyl)-2-(5-(2-hydroxypropan-2-yl)-1,3,4-oxadiazol-2-yl)thiazol-5-yl)-3-fluoro-2-(trifluoromethyl)-N—((S)-1,1,1-trifluoropropan-2-yl)benzenesulfonamide] | 0.01 | 0.093 | 98 | – | –

Second part, led by results:

Kd [1] [µM] | IC50 (full-length human RORγt) [µM] | inhibition at 6 µM (full-length human RORγt) [%] | IC50 [2, 3] [µM] | SMILES | IC50 ([2]; Homo sapiens, CD4+ T) [µM]
0.0013 | 1.1 | 89 | 0.054 | CCN(CC)C(=O)c1nc(-c2nnc(CC(C)(C)C(=O)O)o2)sc1-c1ccc(S(=O)(=O)N[C@@H](C)C(F)(F)F)c(Cl)c1Cl [Example 1, (S)-3-(5-(5-(2,3-Dichloro-4-(N-(1,1,1-trifluoropropan-2-yl)sulfamoyl)phenyl)-4-(diethylcarbamoyl)thiazol-2-yl)-1,3,4-oxadiazol-2-yl)-2,2-dimethylpropanoic acid] | –
0.002 | 0.15 | 104 | 0.15 | CC(C)(Cc1nnc(-c2nc(C(=O)N3CCC(F)CC3)c(-c3cc(C(C)(C)C)cc(C(O)(C(F)(F)F)C(F)(F)F)c3)s2)o1)C(=O)O [Example 2/2, 3-(5-(5-(3-(tert-Butyl)-5-(1,1,1,3,3,3-hexafluoro-2-hydroxypropan-2-yl)phenyl)-4-(4-fluoropiperidine-1-carbonyl)thiazol-2-yl)-1,3,4-oxadiazol-2-yl)-2,2-dimethylpropanoic acid] | –
0.005 | 0.086 | 107 | – | Cc1c(S(=O)(=O)N[C@@H](C)C(F)(F)F)ccc(-c2sc(-c3nnc(C(C)(C)O)o3)nc2C(=O)N2CCC(F)(F)CC2)c1F [Example 26, 4-(4-(4,4-Difluoropiperidine-1-carbonyl)-2-(5-(2-hydroxypropan-2-yl)-1,3,4-oxadiazol-2-yl)thiazol-5-yl)-3-fluoro-2-methyl-N—((S)-1,1,1-trifluoropropan-2-yl)benzenesulfonamide] | –
